Results reported in ChEMBL document CHEMBL4507286 (2021).

Key:
[1] = target: Atypical kinase COQ8B, mitochondrial (Homo sapiens) (UniProt Q96D53)
[2] = target: Peripheral plasma membrane protein CASK (Homo sapiens) (UniProt O14936)
[3] = target: Cyclin-dependent kinase 17 (Homo sapiens) (UniProt Q00537)
[4] = test system: Tyrosine-protein kinase ABL1 (Homo sapiens), P00519 [T315I]
[5] = target: Histamine H4 receptor (Homo sapiens) (UniProt Q9H3N8); details: Compound concentration 10.0 uM
[6] = test system: Receptor-type tyrosine-protein kinase FLT3 (Homo sapiens), P36888 [UNDEFINED MUTATION]
[7] = target: Cytoplasmic tyrosine-protein kinase BMX (Homo sapiens) (UniProt P51813)
[8] = target: Serine/threonine-protein kinase ULK3 (Homo sapiens) (UniProt Q6PHR2)
[9] = test system: Tyrosine-protein kinase ABL1 (Homo sapiens), P00519 [F317I]
[10] = target: Ephrin type-A receptor 3 (Homo sapiens) (UniProt P29320)
Rattus norvegicus = species: Rattus norvegicus; details: Compound concentration 10.0 uM
[11] = target: Beta-adrenergic receptor kinase 1 (Homo sapiens) (UniProt P25098)
[12] = target: Cyclin-dependent kinase 2 homolog (Plasmodium falciparum (isolate 3D7)) (UniProt P61075)
[13] = target: D(1A) dopamine receptor (Homo sapiens) (UniProt P21728); details: Compound concentration 10.0 uM
[14] = test system: Phosphatidylinositol 4,5-bisphosphate 3-kinase catalytic subunit alpha isoform (Homo sapiens), P42336 [E545K]
[15] = target: Serine/threonine-protein kinase 16 (Homo sapiens) (UniProt O75716)
[16] = target: Vascular endothelial growth factor receptor 2 (Homo sapiens) (UniProt P35968)
[17] = test system: Epidermal growth factor receptor (Homo sapiens), P00533 [G719S]
[18] = target: STE20/SPS1-related proline-alanine-rich protein kinase (Homo sapiens) (UniProt Q9UEW8)
[19] = target: 5-hydroxytryptamine receptor 1D (Homo sapiens) (UniProt P28221); details: Compound concentration 10.0 uM
[20] = target: Mitogen-activated protein kinase kinase kinase 9 (Homo sapiens) (UniProt P80192)
[21] = test system: Mast/stem cell growth factor receptor Kit (Homo sapiens), P10721 [A829P]
[22] = target: Ephrin type-A receptor 2 (Homo sapiens) (UniProt P29317)
[23] = target: Kappa-type opioid receptor (Homo sapiens) (UniProt P41145); details: Compound concentration 10.0 uM
[24] = target: D(3) dopamine receptor (Homo sapiens) (UniProt P35462); details: Compound concentration 10.0 uM
[25] = target: Macrophage colony-stimulating factor 1 receptor (Homo sapiens) (UniProt P07333)
[26] = target: Ephrin type-B receptor 2 (Homo sapiens) (UniProt P29323)
[27] = target: Myosin light chain kinase family member 4 (Homo sapiens) (UniProt Q86YV6)
[28] = target: Tyrosine-protein kinase SYK (Homo sapiens) (UniProt P43405)
[29] = target: Serine/threonine-protein kinase Sgk3 (Homo sapiens) (UniProt Q96BR1)
[30] = target: Mitogen-activated protein kinase kinase kinase 11 (Homo sapiens) (UniProt Q16584)
[31] = target: Mitogen-activated protein kinase kinase kinase 14 (Homo sapiens) (UniProt Q99558)
[32] = target: Homeodomain-interacting protein kinase 1 (Homo sapiens) (UniProt Q86Z02)
[33] = target: Receptor-interacting serine/threonine-protein kinase 4 (Homo sapiens) (UniProt P57078)
[34] = target: cAMP-dependent protein kinase catalytic subunit PRKX (Homo sapiens) (UniProt P51817)
[35] = target: Dual specificity tyrosine-phosphorylation-regulated kinase 2 (Homo sapiens) (UniProt Q92630)
[36] = target: Tyrosine-protein kinase Mer (Homo sapiens) (UniProt Q12866)
[37] = target: Myosin-IIIa (Homo sapiens) (UniProt Q8NEV4)
[38] = target: Phosphatidylinositol 4,5-bisphosphate 3-kinase catalytic subunit delta isoform (Homo sapiens) (UniProt O00329)
[39] = target: Serine/threonine-protein kinase D2 (Homo sapiens) (UniProt Q9BZL6)
[40] = target: Tyrosine-protein kinase Blk (Homo sapiens) (UniProt P51451)
[41] = target: Dual specificity testis-specific protein kinase 1 (Homo sapiens) (UniProt Q15569)
[42] = target: Bone morphogenetic protein receptor type-1A (Homo sapiens) (UniProt P36894)
[43] = target: Phosphatidylinositol 4-kinase beta (Homo sapiens) (UniProt Q9UBF8)
[44] = target: Uncharacterized serine/threonine-protein kinase SBK3 (Homo sapiens) (UniProt P0C264)
[45] = Compound concentration 1000.0 nM
[46] = Compound concentration 100.0 nM

cAMP-dependent protein kinase catalytic subunit PRKX (Homo sapiens), sequence (P51817 whole entry): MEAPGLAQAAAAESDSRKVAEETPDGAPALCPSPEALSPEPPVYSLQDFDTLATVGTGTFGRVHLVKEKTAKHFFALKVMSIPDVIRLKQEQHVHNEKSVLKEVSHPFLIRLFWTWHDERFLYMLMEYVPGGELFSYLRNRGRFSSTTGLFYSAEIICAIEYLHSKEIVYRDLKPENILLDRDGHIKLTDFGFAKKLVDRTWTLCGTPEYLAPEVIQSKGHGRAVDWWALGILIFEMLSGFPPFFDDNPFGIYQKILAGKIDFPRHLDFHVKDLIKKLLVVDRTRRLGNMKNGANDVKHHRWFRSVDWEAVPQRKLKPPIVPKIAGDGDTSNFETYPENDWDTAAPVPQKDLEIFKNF
Phosphatidylinositol 4,5-bisphosphate 3-kinase catalytic subunit delta isoform (Homo sapiens), sequence (O00329 whole entry, canonical isoform): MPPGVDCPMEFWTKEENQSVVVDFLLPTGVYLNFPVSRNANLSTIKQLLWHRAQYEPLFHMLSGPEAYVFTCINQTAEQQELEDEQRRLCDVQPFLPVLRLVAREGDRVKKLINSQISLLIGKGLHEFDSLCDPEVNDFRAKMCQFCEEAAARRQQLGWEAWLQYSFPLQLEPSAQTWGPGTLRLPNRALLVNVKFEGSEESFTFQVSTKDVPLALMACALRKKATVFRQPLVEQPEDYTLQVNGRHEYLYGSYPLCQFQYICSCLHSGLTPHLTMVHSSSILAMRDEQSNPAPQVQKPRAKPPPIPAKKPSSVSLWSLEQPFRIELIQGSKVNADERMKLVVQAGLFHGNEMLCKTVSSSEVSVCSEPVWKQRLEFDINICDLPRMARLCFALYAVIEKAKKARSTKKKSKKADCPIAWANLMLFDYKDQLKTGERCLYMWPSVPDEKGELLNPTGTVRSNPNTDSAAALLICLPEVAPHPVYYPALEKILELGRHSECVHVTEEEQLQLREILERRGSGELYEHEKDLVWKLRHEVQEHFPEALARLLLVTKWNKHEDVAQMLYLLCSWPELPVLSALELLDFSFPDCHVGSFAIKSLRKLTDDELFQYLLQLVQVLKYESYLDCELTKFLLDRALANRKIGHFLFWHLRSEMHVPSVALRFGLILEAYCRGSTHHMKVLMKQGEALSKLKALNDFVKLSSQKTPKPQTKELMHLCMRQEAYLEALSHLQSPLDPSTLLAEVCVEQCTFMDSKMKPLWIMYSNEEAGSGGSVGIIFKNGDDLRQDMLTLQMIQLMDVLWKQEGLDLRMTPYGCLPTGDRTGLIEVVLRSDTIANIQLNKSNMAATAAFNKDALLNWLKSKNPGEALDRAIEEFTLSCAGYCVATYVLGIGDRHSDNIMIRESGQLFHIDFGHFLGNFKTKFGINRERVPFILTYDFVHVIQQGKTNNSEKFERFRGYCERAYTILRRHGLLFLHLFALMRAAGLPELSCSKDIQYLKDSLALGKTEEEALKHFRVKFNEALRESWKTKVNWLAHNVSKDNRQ
Mitogen-activated protein kinase kinase kinase 11 (Homo sapiens), sequence (Q16584 whole entry, looked up): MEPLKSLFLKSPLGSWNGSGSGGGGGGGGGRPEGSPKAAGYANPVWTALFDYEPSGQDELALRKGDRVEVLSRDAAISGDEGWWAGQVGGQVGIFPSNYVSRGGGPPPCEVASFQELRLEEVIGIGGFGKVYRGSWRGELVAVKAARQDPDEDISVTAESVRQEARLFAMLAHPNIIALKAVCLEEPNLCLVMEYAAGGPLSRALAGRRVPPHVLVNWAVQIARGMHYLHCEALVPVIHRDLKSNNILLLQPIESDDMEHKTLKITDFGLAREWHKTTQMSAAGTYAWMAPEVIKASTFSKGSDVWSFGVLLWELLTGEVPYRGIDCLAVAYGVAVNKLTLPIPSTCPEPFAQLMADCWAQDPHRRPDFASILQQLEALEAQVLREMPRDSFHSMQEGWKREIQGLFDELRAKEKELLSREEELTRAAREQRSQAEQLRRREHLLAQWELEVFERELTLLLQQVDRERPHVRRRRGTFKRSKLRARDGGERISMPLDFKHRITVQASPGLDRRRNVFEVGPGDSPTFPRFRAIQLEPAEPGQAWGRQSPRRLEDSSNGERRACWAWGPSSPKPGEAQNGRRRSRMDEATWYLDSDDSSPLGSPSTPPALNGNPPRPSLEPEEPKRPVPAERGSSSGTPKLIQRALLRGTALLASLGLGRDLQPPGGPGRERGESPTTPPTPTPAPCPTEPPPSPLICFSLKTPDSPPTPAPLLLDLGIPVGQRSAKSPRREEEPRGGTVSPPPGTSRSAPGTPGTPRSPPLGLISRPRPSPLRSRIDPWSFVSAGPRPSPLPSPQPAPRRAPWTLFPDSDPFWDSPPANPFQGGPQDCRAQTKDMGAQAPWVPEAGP
Peripheral plasma membrane protein CASK (Homo sapiens), sequence (O14936 whole entry): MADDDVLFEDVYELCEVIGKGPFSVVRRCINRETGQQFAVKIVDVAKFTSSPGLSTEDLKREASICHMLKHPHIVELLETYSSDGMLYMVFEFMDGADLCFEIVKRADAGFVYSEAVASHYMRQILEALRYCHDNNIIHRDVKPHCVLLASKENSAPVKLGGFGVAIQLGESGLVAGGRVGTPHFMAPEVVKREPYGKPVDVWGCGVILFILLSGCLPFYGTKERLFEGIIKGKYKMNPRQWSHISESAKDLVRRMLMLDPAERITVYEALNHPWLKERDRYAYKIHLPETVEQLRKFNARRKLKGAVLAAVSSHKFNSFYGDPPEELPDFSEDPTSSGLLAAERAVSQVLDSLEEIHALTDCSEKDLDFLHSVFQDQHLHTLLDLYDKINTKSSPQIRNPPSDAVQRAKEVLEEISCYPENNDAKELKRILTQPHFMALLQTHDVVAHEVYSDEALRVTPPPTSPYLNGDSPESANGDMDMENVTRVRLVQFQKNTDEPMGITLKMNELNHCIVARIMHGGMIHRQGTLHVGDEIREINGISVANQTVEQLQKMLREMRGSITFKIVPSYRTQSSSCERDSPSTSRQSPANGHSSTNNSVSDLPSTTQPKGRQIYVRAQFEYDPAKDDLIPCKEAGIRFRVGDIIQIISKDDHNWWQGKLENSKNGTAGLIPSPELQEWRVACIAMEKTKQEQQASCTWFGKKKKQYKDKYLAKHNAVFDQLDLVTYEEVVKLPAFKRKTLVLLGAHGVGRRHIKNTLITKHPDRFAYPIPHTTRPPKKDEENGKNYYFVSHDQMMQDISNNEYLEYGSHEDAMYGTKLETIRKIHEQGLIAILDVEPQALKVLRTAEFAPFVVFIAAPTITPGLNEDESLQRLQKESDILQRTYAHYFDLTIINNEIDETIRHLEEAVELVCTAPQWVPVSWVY
5-hydroxytryptamine receptor 1D (Homo sapiens), sequence (P28221 whole entry): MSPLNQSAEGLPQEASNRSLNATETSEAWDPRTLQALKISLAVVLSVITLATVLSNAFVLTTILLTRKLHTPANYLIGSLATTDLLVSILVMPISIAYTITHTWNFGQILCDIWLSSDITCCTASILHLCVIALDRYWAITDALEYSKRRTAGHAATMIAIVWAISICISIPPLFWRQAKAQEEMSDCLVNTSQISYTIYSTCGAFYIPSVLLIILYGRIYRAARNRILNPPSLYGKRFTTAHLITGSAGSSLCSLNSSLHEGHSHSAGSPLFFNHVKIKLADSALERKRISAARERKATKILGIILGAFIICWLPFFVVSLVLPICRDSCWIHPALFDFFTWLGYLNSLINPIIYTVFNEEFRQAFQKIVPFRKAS
Serine/threonine-protein kinase D2 (Homo sapiens), sequence (Q9BZL6 whole entry): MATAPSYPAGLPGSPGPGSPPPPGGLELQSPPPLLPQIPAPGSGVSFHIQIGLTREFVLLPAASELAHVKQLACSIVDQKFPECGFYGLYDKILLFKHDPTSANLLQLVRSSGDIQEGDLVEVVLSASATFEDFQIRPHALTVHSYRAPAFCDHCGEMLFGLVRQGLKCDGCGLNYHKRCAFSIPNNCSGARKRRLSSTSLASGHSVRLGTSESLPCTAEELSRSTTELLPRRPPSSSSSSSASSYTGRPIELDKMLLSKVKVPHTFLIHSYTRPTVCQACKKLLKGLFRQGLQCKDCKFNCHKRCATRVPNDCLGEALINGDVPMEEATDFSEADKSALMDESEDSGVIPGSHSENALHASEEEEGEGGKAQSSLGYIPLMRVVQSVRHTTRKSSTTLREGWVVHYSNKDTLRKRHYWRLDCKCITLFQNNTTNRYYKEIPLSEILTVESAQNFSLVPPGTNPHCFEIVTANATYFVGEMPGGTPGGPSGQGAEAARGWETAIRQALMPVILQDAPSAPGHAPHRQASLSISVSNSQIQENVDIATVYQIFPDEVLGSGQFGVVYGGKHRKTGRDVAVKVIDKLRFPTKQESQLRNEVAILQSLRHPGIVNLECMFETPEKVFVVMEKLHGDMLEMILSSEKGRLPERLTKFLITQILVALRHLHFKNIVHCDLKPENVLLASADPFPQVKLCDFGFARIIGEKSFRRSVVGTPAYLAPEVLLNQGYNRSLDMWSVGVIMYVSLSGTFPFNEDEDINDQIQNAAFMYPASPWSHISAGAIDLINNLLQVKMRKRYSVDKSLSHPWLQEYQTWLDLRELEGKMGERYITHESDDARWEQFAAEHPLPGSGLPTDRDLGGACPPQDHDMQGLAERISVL
Dual specificity testis-specific protein kinase 1 (Homo sapiens), sequence (Q15569 whole entry, looked up): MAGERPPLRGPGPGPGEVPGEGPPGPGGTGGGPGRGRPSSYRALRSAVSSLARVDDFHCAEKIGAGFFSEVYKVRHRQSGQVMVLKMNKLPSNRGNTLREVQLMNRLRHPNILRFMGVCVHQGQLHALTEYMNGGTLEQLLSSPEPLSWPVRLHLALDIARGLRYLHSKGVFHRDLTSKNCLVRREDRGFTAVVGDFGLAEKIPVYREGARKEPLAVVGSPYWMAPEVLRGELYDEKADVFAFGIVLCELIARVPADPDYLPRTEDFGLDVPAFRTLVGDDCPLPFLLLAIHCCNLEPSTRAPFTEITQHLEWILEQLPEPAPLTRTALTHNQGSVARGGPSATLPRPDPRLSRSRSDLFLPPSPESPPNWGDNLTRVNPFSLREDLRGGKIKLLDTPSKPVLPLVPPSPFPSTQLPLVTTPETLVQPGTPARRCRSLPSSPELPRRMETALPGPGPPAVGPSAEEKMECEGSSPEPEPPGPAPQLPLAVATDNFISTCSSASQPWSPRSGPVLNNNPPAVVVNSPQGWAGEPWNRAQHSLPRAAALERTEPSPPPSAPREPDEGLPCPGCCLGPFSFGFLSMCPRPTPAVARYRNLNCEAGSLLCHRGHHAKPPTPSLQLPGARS

C[C@H](NC(=O)Nc1cc2[nH]ncc2c(CO)n1)c1ccccn1 [ERKi-NC]
residual activity [1, 45]: 99.8%
residual activity [2, 45]: 60.8%
residual activity [3, 45]: 78%
residual activity [4, 45]: 100%
inhibition [5]: 41.9%
residual activity [6, 45]: 100%
residual activity [7, 45]: 91.7%
residual activity [8, 45]: 98.9%
residual activity [9, 45]: 100%
residual activity [10, 45]: 100%
inhibition (Rattus norvegicus): -1.65%
residual activity [11, 45]: 79.3%
residual activity [12, 45]: 91.1%
inhibition [13]: 4.28%
residual activity [14, 45]: 74.9%
residual activity [15, 45]: 100%
residual activity [16, 45]: 100%
residual activity [17, 45]: 100%
residual activity [18, 45]: 80.9%
inhibition [19]: 39.9%
residual activity [20, 45]: 100%
residual activity [21, 45]: 100%
residual activity [22, 45]: 100%
inhibition [23]: 22.9%
inhibition [24]: 27.9%
residual activity [25, 45]: 100%
residual activity [26, 45]: 100%
residual activity [27, 45]: 100%
residual activity [28, 45]: 100%
residual activity [29, 45]: 93.6%
residual activity [30, 45]: 87.7%
residual activity [31, 45]: 85%
residual activity [32, 45]: 48.9%
residual activity [33, 45]: 100%
residual activity [34, 45]: 100%
residual activity [35, 45]: 100%
residual activity [36, 45]: 100%
residual activity [37, 45]: 100%
residual activity [38, 45]: 100%
residual activity [39, 45]: 100%
residual activity [40, 45]: 100%
residual activity [41, 45]: 100%
residual activity [42, 45]: 74.6%
residual activity [43, 45]: 100%
residual activity [44, 45]: 100%

C[C@@H](NC(=O)Nc1cc2[nH]ncc2c(CO)n1)c1ccccc1 [ERKi]
residual activity [1, 46]: 86.7%
residual activity [2, 46]: 89.7%
residual activity [3, 46]: 95.9%
residual activity [4, 46]: 100%
inhibition [5]: 35.3%
residual activity [6, 46]: 80.7%
residual activity [7, 46]: 94.3%
residual activity [8, 46]: 68.1%
residual activity [9, 46]: 80.2%
residual activity [10, 46]: 79.4%
inhibition (Rattus norvegicus): 8.66%
residual activity [11, 46]: 79.5%
residual activity [12, 46]: 80.1%
inhibition [13]: -3.5%
residual activity [14, 46]: 80.5%
residual activity [15, 46]: 60.3%
residual activity [16, 46]: 100%
residual activity [17, 46]: 86.3%
residual activity [18, 46]: 100%
inhibition [19]: 1.59%
residual activity [20, 46]: 95.7%
residual activity [21, 46]: 55.1%
residual activity [22, 46]: 100%
inhibition [23]: 10.3%
inhibition [24]: -2.24%
residual activity [25, 46]: 89.3%
residual activity [26, 46]: 83.3%
residual activity [27, 46]: 99.5%
residual activity [28, 46]: 100%
residual activity [29, 46]: 83.2%
residual activity [30, 46]: 100%
residual activity [31, 46]: 100%
residual activity [32, 46]: 83.1%
residual activity [33, 46]: 76%
residual activity [34, 46]: 46.1%
residual activity [35, 46]: 59.3%
residual activity [36, 46]: 100%
residual activity [37, 46]: 100%
residual activity [38, 46]: 81.9%
residual activity [39, 46]: 97.5%
residual activity [40, 46]: 100%
residual activity [41, 46]: 100%
residual activity [42, 46]: 100%
residual activity [43, 46]: 82.1%
residual activity [44, 46]: 100%
